# From US20250388605A1, “HETEROBIFUNCTIONAL COMPOUNDS AND METHODS OF TREATING DISEASE” (Halda Therapeutics OpCo, Inc., priority 2022, published 2025)
# Experiments:
# VCaP cells = assay: Cellular growth inhibition assay for VCaP cells, CellTiter-Glo; format: cell-based, human; details: 72 hours
# Summary of the method: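 GI50 values come from four-parameter curve fits of luminescence data normalized to a zero baseline. Compound, in medium with 0.5% DMSO, was added one day after plating and left for 72 h before CellTiter-Glo 2.0 addition.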
# [1] = tested on: T-Rex 293 cell line SC3 cells lacking increased expression of androgen receptor protein; assay: Cellular growth inhibition, T-Rex 293 SC3 cells without doxycycline (no increased androgen receptor expression), CellTiter-Glo; format: cell-based; details: T-Rex 293 SC3 cells not exposed to doxycycline (no increased androgen receptor expression), 72 hours
# Summary of the method: (§1)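 Doxycycline (10 ng/mL) was either included or omitted to toggle wild-type androgen receptor expression in SC3 cells, a T-Rex 293 clone, grown in stripped-serum, phenol red-free medium. After 72 hours with compound, viable cells were quantified by CellTiter-Glo 2.0.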
# T47D cells = assay: Cellular Growth Inhibition Assay for T47D Cells (CellTiter-Glo); format: cell-based, human; details: 72 hours
# Summary of the method: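 GI50 values derive from four-parameter regression of CellTiter-Glo 2.0 luminescence, using zero luminescence as baseline. Human breast cancer T47D cells (3000/well; DMEM, 10% FBS, 0.2 units/mL insulin) were exposed for 72 h to compound dilutions at 0.5% DMSO, with dosing starting 24 h after seeding.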
# [2] = tested on: T-Rex 293 cell line SC3 cells having increased expression of androgen receptor protein due to exposure to doxycycline; assay: Cellular growth inhibition, T-Rex 293 SC3 cells with doxycycline (increased androgen receptor expression), CellTiter-Glo; format: cell-based; details: T-Rex 293 SC3 cells with 10 ng/mL doxycycline (increased androgen receptor expression), 72 hours, CellTiter-Glo 2.0
# Summary of the method: as §1
Compound,GI50 (VCaP cells; Homo sapiens) [nM],GI50 [1] [nM],GI50 (T47D cells; Homo sapiens) [nM],GI50 [2] [nM],GI50 (VCaP cells) [nM],GI50 (T47D cells) [nM]
"CCS(=O)(=O)c1ccc(OC2CC(CCN3CCC4(CCN(c5ncc(C(=O)N[C@H]6C(C)(C)[C@H](Oc7ccc(C#N)c(Cl)c7)C6(C)C)cn5)C4)C3)C2)c(-c2cn(C)c(=O)c3[nH]ccc23)c1 (stereo partly drawn) [Compound I-270, N-[3-(3-chloro-4-cyano-phenoxy)-2,2,4,4-tetramethyl-cyclobutyl]-2-[7-[2-[3-[4-ethylsulfonyl-2-(6-methyl-7-oxo-1H-pyrrolo[2,3-c]pyridin-4-yl)phenoxy]cyclobutyl]ethyl]-2,7-diazaspiro[4.4]nonan-2-yl]pyrimidine-5-carboxamide]",< 500,500 to 1500,< 500,< 500,,
CCS(=O)(=O)c1ccc(Oc2ccc(CN3CC4(C3)CN(c3ncc(C(=O)N[C@H]5C(C)(C)[C@H](Oc6ccc(C#N)c(Cl)c6)C5(C)C)cn3)C4)c(F)c2)c(-c2cn(C)c(=O)c3[nH]ccc23)c1 [Compound I-271],< 500,< 500,< 500,< 500,,
CCS(=O)(=O)c1ccc(Oc2ccc(CN3CCC4(CCN(c5ncc(C(=O)N[C@H]6C(C)(C)[C@H](Oc7ccc(C#N)c(Cl)c7)C6(C)C)cn5)C4)C3)c(F)c2)c(-c2cn(C)c(=O)c3[nH]ccc23)c1 (stereo partly drawn) [Compound I-272],< 500,< 500,< 500,< 500,,
Cn1cc(-c2cc(C(C)(C)O)ccc2Oc2cccc(N3CC(CN4CCN(c5ncc(C(=O)N[C@H]6C(C)(C)[C@H](Oc7ccc(C#N)c(Cl)c7)C6(C)C)cn5)C5(CC5)C4)C3)c2F)c2cc[nH]c2c1=O [Compound I-273],,500 to 1500,,< 500,< 500,< 500
"Cn1cc(-c2cc(C(C)(C)O)ccc2OC2CC(OC3CCN(c4ncc(C(=O)NC5C(C)(C)C(Oc6ccc(C#N)c(Cl)c6)C5(C)C)cn4)CC3)C2)c2cc[nH]c2c1=O (stereo not drawn) [Compound I-274, N-[3-(3-chloro-4-cyano-phenoxy)-2,2,4,4-tetramethyl-cyclobutyl]-2-[4-[3-[4-(1-hydroxy-1-methyl-ethyl)-2-(6-methyl-7-oxo-1H-pyrrolo[2,3-c]pyridin-4-yl)phenoxy]cyclobutoxy]-1-piperidyl]pyrimidine-5-carboxamide]",< 500,< 500,< 500,< 500,,
CCS(=O)(=O)c1ccc(Oc2ccc(CN3CC4(CCN(c5ncc(C(=O)N[C@H]6C(C)(C)[C@H](Oc7ccc(C#N)c(Cl)c7)C6(C)C)cn5)CC4)C3)c(F)c2)c(-c2cn(C)c(=O)c3[nH]ccc23)c1 [Compound I-275],< 500,< 500,< 500,< 500,,
CCS(=O)(=O)c1ccc(Oc2ccc(OC3CC4(C3)CN(c3ncc(C(=O)N[C@H]5C(C)(C)[C@H](Oc6ccc(C#N)c(Cl)c6)C5(C)C)cn3)C4)c(F)c2)c(-c2cn(C)c(=O)c3[nH]ccc23)c1 [Compound I-276],< 500,< 500,< 500,< 500,,
CCS(=O)(=O)Nc1ccc(Oc2ccc(OCC3CCN(c4ncc(C(=O)N[C@H]5C(C)(C)[C@H](Oc6ccc(Cl)c(C#N)c6)C5(C)C)cn4)CC3)cc2)c(-c2cn(C)c(=O)c3[nH]ccc23)c1 [Compound I-277],,< 500,,< 500,< 500,< 500
CCS(=O)(=O)c1ccc(Oc2ccc(CC3CCN(c4ncc(C(=O)N[C@H]5C(C)(C)[C@H](Oc6ccc(C#N)c(Cl)c6)C5(C)C)cn4)CC3)c(F)c2)c(-c2cn(C)c(=O)c3[nH]ccc23)c1 [Compound I-278],< 500,> 3000,< 500,< 500,,
"Cn1cc(-c2cc(C(C)(C)O)ccc2OC2CC3(C2)CN(CCC2CCN(c4ncc(C(=O)NC5C(C)(C)C(Oc6ccc(C#N)c(Cl)c6)C5(C)C)cn4)CC2)C3)c2cc[nH]c2c1=O (stereo not drawn) [Compound I-281, N-[3-(3-chloro-4-cyano-phenoxy)-2,2,4,4-tetramethyl-cyclobutyl]-2-[4-[2-[6-[4-(1-hydroxy-1-methyl-ethyl)-2-(6-methyl-7-oxo-1H-pyrrolo[2,3-c]pyridin-4-yl)phenoxy]-2-azaspiro[3.3]heptan-2-yl]ethyl]-1-piperidyl]pyrimidine-5-carboxamide]",< 500,500 to 1500,< 500,< 500,,
"Cn1cc(-c2cc(C(C)(C)O)ccc2OCC(C)(C)CN2CC(OC3CCN(c4ncc(C(=O)NC5C(C)(C)C(Oc6ccc(C#N)c(Cl)c6)C5(C)C)cn4)CC3)C2)c2cc[nH]c2c1=O (stereo not drawn) [Compound I-282, N-[3-(3-chloro-4-cyano-phenoxy)-2,2,4,4-tetramethyl-cyclobutyl]-2-[4-[1-[3-[4-(1-hydroxy-1-methyl-ethyl)-2-(6-methyl-7-oxo-1H-pyrrolo[2,3-c]pyridin-4-yl)phenoxy]-2,2-dimethyl-propyl]azetidin-3-yl]oxy-1-piperidyl]pyrimidine-5-carboxamide]",< 500,500 to 1500,500 to 1500,< 500,,
CCS(=O)(=O)c1ccc(Oc2ccc(OC3CC4(CCN(c5ncc(C(=O)N[C@H]6C(C)(C)[C@H](Oc7ccc(C#N)c(Cl)c7)C6(C)C)cn5)CC4)C3)c(F)c2)c(-c2cn(C)c(=O)c3[nH]ccc23)c1 [Compound I-283],< 500,> 3000,< 500,< 500,,
CCS(=O)(=O)c1ccc(Oc2ccc(CCC3CCN(c4ncc(C(=O)N[C@H]5C(C)(C)[C@H](Oc6ccc(C#N)c(Cl)c6)C5(C)C)cn4)CC3)c(F)c2)c(-c2cn(C)c(=O)c3[nH]ccc23)c1 [Compound I-284],,> 3000,,< 500,< 500,< 500
CCS(=O)(=O)c1ccc(Oc2ccc(CCCC3CCN(c4ncc(C(=O)N[C@H]5C(C)(C)[C@H](Oc6ccc(C#N)c(Cl)c6)C5(C)C)cn4)CC3)c(F)c2)c(-c2cn(C)c(=O)c3[nH]ccc23)c1 [Compound I-285],< 500,> 3000,< 500,< 500,,
Cn1cc(-c2cc(C(C)(C)O)ccc2Oc2ccc(CCC3C4CN(c5ncc(C(=O)N[C@H]6C(C)(C)[C@H](Oc7ccc(C#N)c(Cl)c7)C6(C)C)cn5)CC34)cc2)c2cc[nH]c2c1=O (stereo partly drawn) [Compound I-286],,500 to 1500,,< 500,< 500,< 500
"Cn1cc(-c2cc(C(C)(C)O)ccc2Oc2ccc(CCC3CCN(c4ncc(C(=O)NC5C(C)(C)C(Oc6ccc(C#N)c(Cl)c6)C5(C)C)cn4)CC3)cn2)c2cc[nH]c2c1=O (stereo not drawn) [Compound I-287, N-[3-(3-chloro-4-cyano-phenoxy)-2,2,4,4-tetramethyl-cyclobutyl]-2-[4-[2-[6-[4-(1-hydroxy-1-methyl-ethyl)-2-(6-methyl-7-oxo-1H-pyrrolo[2,3-c]pyridin-4-yl)phenoxy]-3-pyridyl]ethyl]-1-piperidyl]pyrimidine-5-carboxamide]",500 to 1500,> 3000,< 500,< 500,,
"Cn1cc(-c2cc(C(C)(C)O)ccc2OC2CCC(N3CC(OC4CCN(c5ncc(C(=O)N[C@H]6C(C)(C)[C@H](Oc7ccc(C#N)c(Cl)c7)C6(C)C)cn5)CC4)C3)CC2)c2cc[nH]c2c1=O (stereo partly drawn) [Compound I-288, N-[3-(3-chloro-4-cyano-phenoxy)-2,2,4,4-tetramethyl-cyclobutyl]-2-[4-[1-[4-[4-(1-hydroxy-1-methyl-ethyl)-2-(6-methyl-7-oxo-1H-pyrrolo[2,3-c]pyridin-4-yl)phenoxy]cyclohexyl]azetidin-3-yl]oxy-1-piperidyl]pyrimidine-5-carboxamide]",< 500,< 500,< 500,< 500,,
Cn1cc(-c2cc(C(C)(C)O)ccc2OC2CCC(N3CC(OC4CCN(c5ncc(C(=O)NC6C(C)(C)C(Oc7ccc(C#N)c(Cl)c7)C6(C)C)cn5)CC4)C3)CC2)c2cc[nH]c2c1=O (stereo not drawn) [Compound I-289],,1500 to 3000,,< 500,500 to 1500,1500 to 3000
Cn1cc(-c2cc(C(C)(C)O)ccc2O[C@H]2C[C@H](OCC3CCN(c4ncc(C(=O)N[C@H]5C(C)(C)[C@H](Oc6ccc(C#N)c(Cl)c6)C5(C)C)cn4)CC3)C2)c2cc[nH]c2c1=O [Compound I-290],,< 500,,< 500,< 500,500 to 1500
CCS(=O)(=O)c1ccc(Oc2ccc(N3CC(C4CCN(c5ncc(C(=O)N[C@H]6C(C)(C)[C@H](Oc7ccc(C#N)c(Cl)c7)C6(C)C)cn5)CC4)C3)cc2)c(-c2cn(C)c(=O)c3[nH]ccc23)c1 [Compound I-291],,< 500,,< 500,< 500,< 500
"CCS(=O)(=O)c1ccc(-c2cn(C)c(=O)c3[nH]ccc23)c(-n2cc(CCC3CCN(c4ncc(C(=O)NC5C(C)(C)C(Oc6ccc(C#N)c(Cl)c6)C5(C)C)cn4)CC3)ncc2=O)c1 (stereo not drawn) [Compound I-292, N-[3-(3-chloro-4-cyano-phenoxy)-2,2,4,4-tetramethyl-cyclobutyl]-2-[4-[2-[4-[5-ethylsulfonyl-2-(6-methyl-7-oxo-1H-pyrrolo[2,3-c]pyridin-4-yl)phenyl]-5-oxo-pyrazin-2-yl]ethyl]-1-piperidyl]pyrimidine-5-carboxamide]",< 500,< 500,< 500,< 500,,
